# Assay results taken from article PMC11981937 (Nature, 2025).
# How the values were obtained:
# in vivo [1] = conditions: Syrian golden, hamster; for concentration at 0.05 h / concentration at 1 h / concentration at 2 h / concentration at 4 h / concentration at 7 h / concentration at 24 h / concentration at 12 h / concentration at 0.5 h: female
# MERS-CoV = assay: microbe, parasite or virus in culture; assay type: cell-based; conditions: Middle East respiratory syndrome-related coronavirus, Huh-7, read-out: Median EC50
# Pg-CoV = assay: microbe, parasite or virus in culture; assay type: cell-based; conditions: Pangolin coronavirus
# SARS-CoV = assay: microbe, parasite or virus in culture; assay type: cell-based; conditions: Severe acute respiratory syndrome coronavirus, Vero
# in vivo [2] = conditions: dog
# [3] = po, 50 mg/kg, individual animal
compound,measurement,setting,value
"C[C@H]1Cn2ncc(C(=O)Nc3cccc(C#N)c3)c2C(=O)N1c1ccc(C(F)(F)c2ccccc2)cc1 [JNJ-9676, (S)-N-(3-cyanophenyl)-5-(4-(difluoro(phenyl)methyl)phenyl)-6-methyl-4-oxo-4,5,6,7-tetrahydropyrazolo[1,5-a]pyrazine-3-carboxamide]",Vd,in vivo [1],7.9 L/kg
same,clearance,in vivo [1],9 mL/min/kg
same,half-life,in vivo [1],13 h
same,bioavailability,in vivo [1]; po,> 50%
same,concentration at 0.05 h,"in vivo [1]; iv, 1 mg/kg, average",555 ng/mL
same,concentration at 1 h,"in vivo [1]; iv, 1 mg/kg, average",240 ng/mL
same,concentration at 2 h,"in vivo [1]; iv, 1 mg/kg, average",186 ng/mL
same,concentration at 4 h,"in vivo [1]; iv, 1 mg/kg, average",83.8 ng/mL
same,concentration at 7 h,"in vivo [1]; iv, 1 mg/kg, average",47.7 ng/mL
same,concentration at 24 h,"in vivo [1]; iv, 1 mg/kg, average",19.2 ng/mL
same,concentration at 12 h,"in vivo [1]; iv, 1 mg/kg, average, female hamster, IV 1 mg/kg, 12 h, n=3",25.1 ng/mL
same,concentration at 0.05 h,"in vivo [1]; iv, 1 mg/kg, individual animal",558 ng/mL
same,concentration at 1 h,"in vivo [1]; iv, 1 mg/kg, individual animal",268 ng/mL
same,concentration at 2 h,"in vivo [1]; iv, 1 mg/kg, individual animal",170 ng/mL
same,concentration at 4 h,"in vivo [1]; iv, 1 mg/kg, individual animal",75.9 ng/mL
same,concentration at 7 h,"in vivo [1]; iv, 1 mg/kg, individual animal",45.4 ng/mL
same,concentration at 12 h,"in vivo [1]; iv, 1 mg/kg, individual animal",26.7 ng/mL
same,concentration at 24 h,"in vivo [1]; iv, 1 mg/kg, individual animal",20.1 ng/mL
same,concentration at 0.5 h,"in vivo [1]; po, 5 mg/kg, average",68.1 ng/mL
same,concentration at 1 h,"in vivo [1]; po, 5 mg/kg, average",114 ng/mL
same,concentration at 2 h,"in vivo [1]; po, 5 mg/kg, average",220 ng/mL
same,concentration at 4 h,"in vivo [1]; po, 5 mg/kg, average",264 ng/mL
same,concentration at 7 h,"in vivo [1]; po, 5 mg/kg, average",176 ng/mL
same,concentration at 12 h,"in vivo [1]; po, 5 mg/kg, average",129 ng/mL
same,concentration at 24 h,"in vivo [1]; po, 5 mg/kg, average",82.6 ng/mL
same,concentration at 0.5 h,"in vivo [1]; po, 5 mg/kg, individual animal",71 ng/mL
same,concentration at 1 h,"in vivo [1]; po, 5 mg/kg, individual animal",95.4 ng/mL
same,concentration at 2 h,"in vivo [1]; po, 5 mg/kg, individual animal",230 ng/mL
same,concentration at 7 h,"in vivo [1]; po, 5 mg/kg, individual animal",142 ng/mL
same,concentration at 12 h,"in vivo [1]; po, 5 mg/kg, individual animal",89.2 ng/mL
same,concentration at 12 h,"in vivo [1]; po, 5 mg/kg, individual animal, female hamster, PO 5mg/kg, 12 h",145 ng/mL
same,concentration at 0.5 h,"in vivo [1]; po, 50 mg/kg, average",801 ng/mL
same,concentration at 1 h,"in vivo [1]; po, 50 mg/kg, average",1060 ng/mL
same,concentration at 4 h,"in vivo [1]; po, 50 mg/kg, average",2430 ng/mL
same,concentration at 7 h,"in vivo [1]; po, 50 mg/kg, average",2080 ng/mL
same,concentration at 24 h,"in vivo [1]; po, 50 mg/kg, average",655 ng/mL
same,concentration at 2 h,"in vivo [1]; po, 50 mg/kg, average, female hamster, PO 50mg/kg, 2 h, n=3",1760 ng/mL
same,concentration at 12 h,"in vivo [1]; po, 50 mg/kg, average, female hamster, PO 50mg/kg, 12 h, n=3",1200 ng/mL
same,concentration at 0.5 h,in vivo [1]; [3],680 ng/mL
same,concentration at 1 h,in vivo [1]; [3],829 ng/mL
same,concentration at 2 h,in vivo [1]; [3],1580 ng/mL
same,concentration at 4 h,in vivo [1]; [3],2230 ng/mL
same,concentration at 7 h,in vivo [1]; [3],1510 ng/mL
same,concentration at 1 h,"in vivo [1]; po, 50 mg/kg, individual animal, female hamster, PO 50mg/kg, 1 h",1450 ng/mL
same,EC50,MERS-CoV,600 nM
same,EC50,Pg-CoV,4 to 6 nM
same,EC50,SARS-CoV; read-out: Median EC50,16 nM
same,EC90,SARS-CoV; read-out: Median EC90,20 nM
same,Vd,in vivo [2],8.2 L/kg
same,clearance,in vivo [2],< 1.5 mL/min/kg
same,half-life,in vivo [2],> 40 h
same,bioavailability,in vivo [2]; po,> 80%
